As usually defined, the inhibition is how much of the control response was suppressed. A higher inhibition goes with a strong effect. Usually IC50 stands for the concentration that gives 50% inhibition. Read a low IC50 as greater potency.

The test system of one assay is MIA-PACA2 pancreatic cancer cell lines. Put plainly: Cell proliferation assay (CellTiter 96 AQueous One). The class given is cell-based. Conditions: Homo sapiens, MIA PaCa-2; at 30 μM, MIA-PACA2.
As for `COc1ccc(NC(=O)CCc2c(C)nc(-c3ccccn3)nc2O)cn1` [drawing 1501], the inhibition at 30 µM lay within 76 to 100%.
Same read-out and setting: the figure for `CS(=O)(=O)Cc1ccc(C(=O)Nc2nc(-c3ccccn3)cs2)cc1` [drawing 1479] is 76 to 100%; for `Cc1noc(C)c1CC(=O)Nc1nnc(-c2ccccn2)[nH]1` [drawing 1411] it is 25 to 50%; for `COc1ccccc1-c1cc(C(=O)Nc2nnc(-c3ccccn3)[nH]2)no1` [drawing 1451] it is 76 to 100%.
The compound `COc1cnc(C2CCCN2)nc1O` (centres unmarked) [drawing 1792] came in with an inhibition at 30 µM of 51 to 75%.
The same measure, in the same setting: the figure for `O=C(COCc1ccnc(O)c1)Nc1nc(-c2ccccn2)nc2sccc12` [drawing 1733] is 51 to 75%; for `Cc1cnc(-c2ccccn2)nc1NC(=O)C1CCCc2cc(C#N)ccc21` (centres unmarked) [drawing 1703] it is 76 to 100%; for `O=C(c1csc2c(O)nc(-c3ccccn3)nc12)N1CCC(N2CCCC2=O)CC1` [drawing 1568] it is 1 to 25%.
The same measure, in the same setting: the figure for `O=S(=O)(c1ccccc1)N1CCCc2c(O)nc(-c3ccccn3)nc21` [drawing 1553] is 25 to 50%.
The same measure, in the same setting: the figure for `O=C1CN(c2nc(-c3ccccn3)nc3scc(-c4ccccc4)c23)CCN1` [drawing 1593] is 1 to 25%; for `c1ccc(-c2csc3nc(-c4ccccn4)nc(NN4CCOCC4)c23)cc1` [drawing 1623] it is 76 to 100%.
On to `CCOCCC1CCN(C(=O)c2csc3c(O)nc(-c4ccccn4)nc23)CC1` [drawing 1565], for which the inhibition at 30 µM lay within 76 to 100%.
Same read-out and setting: the figure for `Oc1nc(-c2ccccn2)nc2c(-c3cc(F)ccc3OC(F)F)csc12` [drawing 1736] is 76 to 100%; for `Nc1nc(-c2ccccn2)nc2scc(C(=O)O)c12` [drawing 1782] it is 1 to 25%; for `O=C(c1csc2c(O)nc(-c3ccccn3)nc12)N1CCNC(c2ccc(O)cc2)C1` (centres unmarked) [drawing 1701] it is 76 to 100%.
The same measure, in the same setting: the figure for `COc1cccc(-c2csc3c(O)nc(-c4ccccn4)nc23)c1` [drawing 1748] is 76 to 100%.
As for `CCN(CC)CCC(C)Nc1nc(-c2ccccn2)nc2sccc12` (centres unmarked) [drawing 1592], the inhibition at 30 µM fell in the range of 76 to 100%.
For `O=C(c1csc2c(O)nc(-c3ccccn3)nc12)N1CCN(c2ccc(F)cc2)CC1` [drawing 1648], the inhibition at 30 µM lay in the range of 76 to 100%.
Same read-out and setting: the figure for `COc1ccc(C2CN(C(=O)c3csc4c(O)nc(-c5ccccn5)nc34)CCN2)cc1` (centres unmarked) [drawing 1667] is 25 to 50%.
On the same count and under the same terms, the figure for `O=C(c1cocn1)N1CCCc2c(O)nc(-c3ccccn3)nc21` [drawing 1551] is 1 to 25%.
Still for that read-out and setting: the figure for `COc1cccc(CC(=O)Nc2nnc(-c3ccccn3)[nH]2)c1` [drawing 1390] is 25 to 50%; for `O=C(Nc1nnc(-c2ccccn2)[nH]1)C1Cc2cc(Cl)ccc2O1` (centres unmarked) [drawing 1459] it is 76 to 100%; for `CCOc1cc(C(=O)Oc2c(C)ccc(C)c2C)cc(OCC)c1OCC` [drawing 1527] it is 76 to 100%.
`CC(=O)C1CCN(c2nc(-c3ccccn3)nc3scc(-c4ccccc4)c23)CC1` returned an inhibition at 30 µM of 76 to 100%.
On the same count and under the same terms, the figure for `O=C(Nc1nnc(-c2ccccn2)[nH]1)c1ccc(=O)[nH]n1` [drawing 1470] is 25 to 50%; for `Cc1nc2nc(C(F)(F)F)nn2c(C)c1CC(=O)Nc1nnc(-c2ccccn2)[nH]1` [drawing 1445] it is 51 to 75%; for `CN(Cc1cnn(C)c1)c1nc(-c2ccccn2)nc2scc(-c3ccccc3)c12` [drawing 1604] it is 76 to 100%.
Regarding `O=C(CN1CCN(c2nc(-c3ccccn3)nc3scc(-c4ccccc4)c23)CC1)N1CCCC1` [drawing 1620], the inhibition at 30 µM was 76 to 100%.

For another assay, the system named is MAPK phosphorylation in PANC-1 pancreatic cancer cell line. The experiment in a line: MAPK cell-based phosphorylation assay (cell-direct ELISA, EGF stimulation). The following applies: Homo sapiens. On the procedure:
Cell lines: Tumor-derived pancreatic cancer cell lines PANC-1 were purchased from ATCC and were maintained according to ATCC recommendation.
Method: Cells were plated at 7500 cells/well density in 96-wells plate, starved over night, and the small molecules to be tested were added to the cells in the final concentration of 30 μM with 0.3% DMSO for 6 hours incubation at 37° C. For IC50 value determination, serial dilutions of compounds were added to cells under the same conditions. Next, cells were stimulated with 1.5 ng/ml EGF for 15 min. followed by cell fixation with 4% Formaldehyde in PBS at RT for 20 min. Phosphorylation level of MAPK was determined by Cell-direct ELISA.
Cell-direct ELISA: For each well, cells were permeabilized with PBS-Triton 0.1%, quenched with H2O2 0.6% in PBS-Triton 0.1%, and probed with anti-phospho-MAPK antibodies (R&D Systems) followed by HRP-conjugated secondary antibody (Jackson Immunoresearch, West Grove, Pa.). Next, a solution 50 μM of the fluorescent substrate AmpliFlu Red (Sigma) was added and incubated at RT for 20 min. At the end of the incubation time, fluorescence was measured at 595 nm on a microplate reader (AF2200; Eppendorf, Inc., Hamburg, Germany).
(In general: An ELISA detects its analyte on a solid surface through an enzyme-linked reagent.)
`Oc1nc(-c2ccccn2)nc2c(-c3ccsc3)csc12` [drawing 1214] gave an IC50 below 2 µM.
The same measure, in the same setting: the figure for `CC(C)(C)c1ccc(-c2csc3c(O)nc(-c4ccccn4)nc23)cc1` [drawing 1191] is 2 to 10 µM; for `COCc1ccc(-c2csc3c(O)nc(-c4ccccn4)nc23)cc1F` [drawing 1190] it is 2 to 10 µM.

Staying with this assay, now noted: Homo sapiens, * = tested at 10 μM.
In the case of `COCCNc1nc(-c2cccc(N)n2)nc2sc(-c3ccccc3)c(-c3ccccc3)c12` [drawing 1351], the inhibition at 10 µM lay within 51 to 75%.
The same measure, in the same setting: the figure for `Nc1nc(-c2ccccn2)nc2c(-c3ccccn3)csc12` is 76 to 100%.
The same measure, in the same setting: the figure for `OCC1(c2ccc(-c3nc(-c4ccccn4)nc(-c4ccc(C5(CO)CC5)cc4)c3Oc3ccccc3)cc2)CC1` [drawing 1292] is 51 to 75%.
The same measure, in the same setting: the figure for `COCCNc1nc(-c2ccccn2)nc(-c2cccc(OCCN(C)C)c2)c1Oc1ccccc1` [drawing 1289] is 25 to 50%.
As to `Oc1nc(-c2ccccn2)nc2c(-c3ccsc3)csc12` [drawing 1214], the inhibition at 10 µM was in the range of 76 to 100%.
`CC(O)CNc1nc(-c2nccn2C)nc2sc(-c3ccccc3)c(-c3ccccc3)c12` (centres unmarked) [drawing 1329] displayed an inhibition at 10 µM of 1 to 25%.
Same read-out and setting: the figure for `COc1cnc(CNC(=O)c2csc3c(O)nc(-c4ccccn4)nc23)[nH]c1=O` [drawing 1280] is 0%; for `CC(C)(C)c1ccc(-c2csc3c(O)nc(-c4ccccn4)nc23)cc1` [drawing 1191] it is 76 to 100%.
Still for that read-out and setting: the figure for `Oc1nc(-c2ccccn2)nc2c(-c3ccccc3OC3CCCCC3)csc12` [drawing 1205] is 1 to 25%.
On the same count and under the same terms, the figure for `COCC(C)Nc1nc(-c2ccccn2)nc(C(=O)NCCCc2c[nH]cn2)c1Oc1ccccc1` (centres unmarked) [drawing 1310] is 1 to 25%; for `COc1ccccc1-c1csc2c(O)nc(-c3ccccn3)nc12` [drawing 1209] it is 1 to 25%.
`Nc1nc(-c2ccccn2)nc2c(-c3ccccc3)csc12` [drawing 1201] had an inhibition at 10 µM of 25 to 50%.
The same measure, in the same setting: the figure for `Cn1cnc(-c2nc(O)c3c(-c4ccccc4)c(-c4ccc(CNC(=O)OC(C)(C)C)cc4)sc3n2)c1` [drawing 1297] is 0%.
Same read-out and setting: the figure for `Oc1nc(-c2ccccn2)nc2c(-c3cncc(C(F)F)c3)csc12` [drawing 1268] is 0%.
On the same count and under the same terms, the figure for `Cn1ccnc1-c1nc(NCCOC(F)(F)F)c2c(-c3ccccc3)c(-c3ccccc3)sc2n1` [drawing 1328] is 76 to 100%.
On to `Oc1nc(-c2ccccn2)nc2c(-c3ccnn3-c3ccccn3)csc12` [drawing 1240], for which the inhibition at 10 µM is 1 to 25%.
Same read-out and setting: the figure for `COCc1ccc(-c2csc3c(O)nc(-c4ccccn4)nc23)cc1F` [drawing 1190] is 76 to 100%.

The assay is the same for the next values; noted with them: Homo sapiens, at 30 μM.
For the compound `CS(=O)(=O)CCCNC(=O)c1csc2nc(-c3ccccn3)nc(N3CCOCC3)c12` [drawing 1170], the inhibition at 30 µM fell in the range of 25 to 50%.
With `O=C(Nc1nnc(-c2ccccn2)[nH]1)c1ccn(-c2cccc(Cl)c2)n1` [drawing 1028], the inhibition at 30 µM fell in the range of 25 to 50%.
As for `O=C(Cn1c(=O)oc2ccccc21)Nc1nnc(-c2ccccn2)[nH]1` [drawing 1010], the inhibition at 30 µM fell in the range of 1 to 25%.
Same read-out and setting: the figure for `Oc1nc(-c2ccccn2)nc2c(C3CCNCC3)csc12` [drawing 1116] is 1 to 25%.
The same measure, in the same setting: the figure for `Cc1cnc(-c2ccccn2)nc1NC(=O)Cc1ccc(C#N)cc1` [drawing 1173] is 51 to 75%; for `CC(O)CNc1nc(-c2ccccn2)nc2scc(-c3ccccc3)c12` (centres unmarked) [drawing 1042] it is 25 to 50%; for `Oc1ccc(C2(c3cccc(Cl)c3)CCCC2)cc1` [drawing 1047] it is 76 to 100%.
Take `O=C(Nc1nnc(-c2ccccn2)[nH]1)C1Cc2cc(Cl)ccc2O1` (centres unmarked) [drawing 1025]: the inhibition at 30 µM was in the range of 1 to 25%.
Still for that read-out and setting: the figure for `O=C(Nc1nnc(-c2ccccn2)[nH]1)C1CC(=O)N(Cc2cccc(C(F)(F)F)c2)C1` (centres unmarked) [drawing 1024] is 25 to 50%.
Same read-out and setting: the figure for `O=C(Nc1nnc(-c2ccccn2)[nH]1)c1ccn(-c2cccc(F)c2)n1` [drawing 999] is 1 to 25%; for `O=C(CNc1nc(-c2ccccn2)nc2scc(-c3ccccc3)c12)NC1CC1` [drawing 1097] it is 25 to 50%.
`CC(C)c1nc(CC(=O)Nc2nnc(-c3ccccn3)[nH]2)cs1` [drawing 1003] gave an inhibition at 30 µM of 1 to 25%.
The same measure, in the same setting: the figure for `O=C(Nc1nnc(-c2ccccn2)[nH]1)c1ccc2ccccc2n1` [drawing 1002] is 1 to 25%; for `Cc1nc2nc(C(F)(F)F)nn2c(C)c1CC(=O)Nc1nnc(-c2ccccn2)[nH]1` [drawing 1020] it is 1 to 25%; for `N#Cc1ccc(CC(=O)Cc2ccnc(-c3ccccn3)n2)cc1` it is 1 to 25%.
In the case of `O=C(Cc1ccc2c(c1)OCCO2)Nc1nnc(-c2ccccn2)[nH]1` [drawing 1026], the inhibition at 30 µM lay in the range of 1 to 25%.
Regarding `COc1cccc(C2CN(C(=O)c3csc4c(O)nc(-c5ccccn5)nc34)CCN2)c1` (centres unmarked) [drawing 1150], the inhibition at 30 µM is 1 to 25%.
The same measure, in the same setting: the figure for `Clc1csc2nc(-c3ccccn3)nc(N3CCOCC3)c12` [drawing 1113] is 1 to 25%; for `OC1CCN(c2nc(-c3ccccn3)nc3scc(-c4ccccc4)c23)CC1` [drawing 1103] it is 1 to 25%.
With `CCCOc1ccc2ccccc2c1CN(C)S(=O)(=O)N1CC(C)OC(C)C1` (centres unmarked) [drawing 1051], the inhibition at 30 µM lay in the range of 1 to 25%.
`NC(=O)Cn1cnc2nc(-c3ccccn3)nc(N3CCOCC3)c21` [drawing 1184]: the inhibition at 30 µM was 1 to 25%.
Same read-out and setting: the figure for `O=C(c1csc2c(O)nc(-c3ccccn3)nc12)N1CCc2ccccc2CC1` [drawing 1072] is 25 to 50%.
On the same count and under the same terms, the figure for `COCCCCNC(=O)c1csc2nc(-c3ccccn3)nc(N3CCOCC3)c12` [drawing 1156] is 1 to 25%.

The values are drawn from patent publication US10940139B2, “Compounds that interact with the Ras superfamily for the treatment of cancers, inflammatory diseases, rasopathies, and fibrotic disease” (Shy Therapeutics LLC, priority 2017, dated 2021).
